≈ marks a conversion by molar mass, not a printed value. Values belong to the molecule of their own block, whether it stands above or below them. Calls of active or inactive are those of the source. No cut-off for these calls is given here.
Tests used:
[1] = system: Pseudomonas aeruginosa; assay: Antibacterial activity against Pseudomonas aeruginosa ATCC27853 assessed as bacterial growth inhibition up to 100 uM incubated for 16 hrs by broth microdilution assay; type: functional, organism-based
[2] = system: Escherichia coli; assay: Antibacterial activity against Escherichia coli ATCC8739 assessed as bacterial growth inhibition up to 100 uM incubated for 16 hrs by broth microdilution assay; type: functional, organism-based
[3] = system: Staphylococcus aureus; assay: Antibacterial activity against Staphylococcus aureus ATCC6538 assessed as bacterial growth inhibition incubated for 16 hrs by broth microdilution assay; type: functional
[4] = system: Bacillus subtilis; assay: Antibacterial activity against Bacillus subtilis ATCC6633 assessed as bacterial growth inhibition incubated for 16 hrs by broth microdilution assay; type: functional
[5] = system: Staphylococcus aureus; assay: Antibacterial activity against methicillin-resistant Staphylococcus aureus assessed as bacterial growth inhibition incubated for 16 hrs by broth microdilution assay; type: functional
[6] = system: Staphylococcus aureus; assay: Antibacterial activity against Staphylococcus aureus ATCC29213 assessed as bacterial growth inhibition incubated for 16 hrs by broth microdilution assay; type: functional
[7] = system: Staphylococcus epidermidis; assay: Antibacterial activity against Staphylococcus epidermidis assessed as bacterial growth inhibition incubated for 16 hrs by broth microdilution assay; type: functional
[8] = system: Enterococcus faecalis; assay: Antibacterial activity against Enterococcus faecalis assessed as bacterial growth inhibition incubated for 16 hrs by broth microdilution assay; type: functional
[9] = system: Enterococcus faecium; assay: Antibacterial activity against Enterococcus faecium assessed as bacterial growth inhibition incubated for 16 hrs by broth microdilution assay; type: functional
[10] = system: L02; assay: Cytotoxicity against human LO2 cells at 100 uM incubated for 72 hrs by CCK8 assay; type: toxicity, cell-based; conditions: l02, 72 h
[11] = system: HaCaT; assay: Cytotoxicity against human HaCaT cells at 100 uM incubated for 72 hrs by CCK8 assay; type: toxicity, cell-based
[12] = system: HCT-116; assay: Cytotoxicity against human HCT-116 cells at 100 uM incubated for 72 hrs by CCK8 assay; type: toxicity, cell-based; conditions: hct-116, 72 h
[13] = Hemolytic activity against chicken erythrocytes up to 100 uM incubated for 1 hr by absorbance based assay; type: toxicity, cell-based, Gallus gallus, Erythrocyte; conditions: read-out: Activity
[14] = system: L02; assay: Induction of apoptosis in human LO2 cells assessed as viable cells at 12.5 uM incubated for 48 hrs by Annexin V-FITC/PI staining based flow cytometry (reference value: 98.0 %); type: functional; conditions: read-out: Activity
[15] = system: L02; assay: Induction of apoptosis in human LO2 cells assessed as early apoptotic cells at 12.5 uM incubated for 48 hrs by Annexin V-FITC/PI staining based flow cytometry (reference value: 0.85 %); type: functional
[16] = system: L02; assay: Induction of apoptosis in human LO2 cells assessed as late apoptotic cells at 12.5 uM incubated for 48 hrs by Annexin V-FITC/PI staining based flow cytometry (reference value: 0.044 %); type: functional
[17] = system: L02; assay: Induction of apoptosis in human LO2 cells assessed as necrotic cells at 12.5 uM incubated for 48 hrs by Annexin V-FITC/PI staining based flow cytometry (reference value: 1.12 %); type: functional
[18] = system: L02; assay: Induction of apoptosis in human LO2 cells assessed as viable cells at 50 uM incubated for 48 hrs by Annexin V-FITC/PI staining based flow cytometry (reference value: 98.0 %); type: functional; conditions: read-out: Activity
[19] = system: L02; assay: Induction of apoptosis in human LO2 cells assessed as early apoptotic cells at 50 uM incubated for 48 hrs by Annexin V-FITC/PI staining based flow cytometry (reference value: 0.85 %); type: functional
[20] = system: L02; assay: Induction of apoptosis in human LO2 cells assessed as late apoptotic cells at 50 uM incubated for 48 hrs by Annexin V-FITC/PI staining based flow cytometry (reference value: 0.044 %); type: functional
[21] = system: L02; assay: Induction of apoptosis in human LO2 cells assessed as necrotic cells at 50 uM incubated for 48 hrs by Annexin V-FITC/PI staining based flow cytometry (reference value: 1.12 %); type: functional
[22] = system: L02; assay: Induction of apoptosis in human LO2 cells assessed as viable cells at 100 uM incubated for 48 hrs by Annexin V-FITC/PI staining based flow cytometry (reference value: 98.0 %); type: functional; conditions: read-out: Activity
[23] = system: L02; assay: Induction of apoptosis in human LO2 cells assessed as early apoptotic cells at 100 uM incubated for 48 hrs by Annexin V-FITC/PI staining based flow cytometry (reference value: 0.85 %); type: functional
[24] = system: L02; assay: Induction of apoptosis in human LO2 cells assessed as late apoptotic cells at 100 uM incubated for 48 hrs by Annexin V-FITC/PI staining based flow cytometry (reference value: 0.044 %); type: functional
[25] = system: L02; assay: Induction of apoptosis in human LO2 cells assessed as necrotic cells at 100 uM incubated for 48 hrs by Annexin V-FITC/PI staining based flow cytometry (reference value: 1.12 %); type: functional
[26] = biological target: T1, Mushroom tyrosinase (Agaricus bisporus) (UniProt O42713+Q00024+C7FF04+C7FF05); assay: Inhibition of mushroom tyrosinase using L-DOPA as substrate up to 1 mM preincubated for 10 mins followed by substrate addition measured after 20 mins by absorbance based assay; type: protein assay; conditions: time 30.0 min
[27] = biological target: T1, Mushroom tyrosinase (Agaricus bisporus); assay: Activation of mushroom tyrosinase using L-DOPA as substrate at 1 mM preincubated for 10 mins followed by substrate addition measured after 20 mins by absorbance based assay; type: protein assay; conditions: filed as activator, time 30.0 min
[28] = biological target: T1, Mushroom tyrosinase (Agaricus bisporus); assay: Competitive binding affinity to mushroom tyrosinase at 0.1 mM in presence of 0.25 mM L-DOPA; type: protein assay
[29] = biological target: T1, Mushroom tyrosinase (Agaricus bisporus); assay: Competitive binding affinity to mushroom tyrosinase at 0.5 to 1 mM in presence of 0.25 mM L-DOPA; type: protein assay; conditions: filed as activator, dose 0.5-1 mM
[30] = system: Staphylococcus aureus; assay: Antibacterial activity against Staphylococcus aureus ATCC6538 assessed as bacterial growth inhibition at 100 uM incubated for 12 hrs by resazurin assay; type: functional, organism-based
[31] = system: Staphylococcus aureus; assay: Antibacterial activity against Staphylococcus aureus ATCC6538 assessed as bacterial growth inhibition at 100 uM incubated for 12 hrs by spot assay; type: functional, organism-based
[32] = Hemolytic activity against chicken erythrocytes at 50 uM incubated for 1 hr by absorbance based assay; type: toxicity, cell-based, Gallus gallus, Erythrocyte; conditions: read-out: Activity

SMILES: CCC/C=C\c1ccccc1/C=C/C(=O)N[C@@H](Cc1ccccc1)C(=O)OC
inhibition [1]: inactive
inhibition [2]: inactive
MIC [3]: > 100 µM
MIC [4]: > 100 µM

SMILES: CCC/C=C\c1ccccc1/C=C/C(=O)N[C@@H](Cc1ccc(O)cc1)C(=O)OC
inhibition [1]: inactive
inhibition [2]: inactive
MIC [3]: 12.5 µM (≈ 4.92 µg/mL)
MIC [4]: 12.5 µM (≈ 4.92 µg/mL)
MIC [5]: 20 µM (≈ 7.87 µg/mL)
MIC [6]: 20 µM (≈ 7.87 µg/mL)
MIC [7]: > 40 µM
MIC [8]: 20 µM (≈ 7.87 µg/mL)
MIC [9]: 20 µM (≈ 7.87 µg/mL)
Activity [10]: Non-toxic
Activity [11]: Non-toxic
Activity [12]: Non-toxic
hemolysis at 1 h, up to 100 µM [13]: < 5%
viability at 12.5 µM [14]: 98.5%
Activity [15]: 0.2%
Activity [16]: 0.041%
Activity [17]: 1.23%
viability at 50 µM [18]: 97.9%
Activity [19]: 0.74%
Activity [20]: 0.024%
Activity [21]: 1.33%
viability at 100 µM [22]: 97.7%
Activity [23]: 0.94%
Activity [24]: 0.034%
Activity [25]: 1.34%
inhibition [26]: inactive
Emax [27]: > 300%
Activity [28]: inactive
Activity [29]: Active

SMILES: COC(=O)[C@H](Cc1ccc(O)cc1)NC(=O)/C=C/c1ccccc1F
inhibition [1]: inactive
inhibition [2]: inactive
MIC [3]: > 100 µM
MIC [4]: 100 µM (≈ 34.3 µg/mL)
inhibition [26]: inactive

SMILES: CCC/C=C\c1ccccc1/C=C/C(=O)N[C@@H](C)C(=O)OC
inhibition [1]: inactive
inhibition [2]: inactive
MIC [3]: > 100 µM
MIC [4]: 100 µM (≈ 30.1 µg/mL)

SMILES: COC(=O)[C@H](Cc1ccc(O)cc1)NC(=O)/C=C/c1ccccc1C(F)(F)F
inhibition [1]: inactive
inhibition [2]: inactive
MIC [3]: 100 µM (≈ 39.3 µg/mL)
MIC [4]: > 100 µM
inhibition [26]: inactive

SMILES: CN[C@H](CC(C)C)C(=O)N[C@H]1C(=O)N[C@@H](CC(N)=O)C(=O)N[C@H]2C(=O)N[C@H]3C(=O)N[C@H](C(=O)N[C@H](C(=O)O)c4cc(O)cc(O)c4-c4cc3ccc4O)[C@H](O)c3ccc(c(Cl)c3)Oc3cc2cc(c3O[C@@H]2O[C@H](CO)[C@@H](O)[C@H](O)[C@H]2O[C@H]2C[C@](C)(N)[C@H](O)[C@H](C)O2)Oc2ccc(cc2Cl)[C@H]1O [VANCOMYCIN]
MIC [5]: 2.8 µM (≈ 4.06 µg/mL)
MIC [6]: 1.4 µM (≈ 2.03 µg/mL)
MIC [8]: 2.8 µM (≈ 4.06 µg/mL)
MIC [9]: 2.8 µM (≈ 4.06 µg/mL)

SMILES: CCC/C=C\c1ccccc1/C=C/C(=O)O
inhibition [1]: inactive
inhibition [2]: inactive
MIC [3]: > 100 µM
MIC [4]: > 100 µM

SMILES: COC(=O)[C@H](Cc1ccc(O)cc1)NC(=O)/C=C/c1ccccc1Br
inhibition [1]: inactive
inhibition [2]: inactive
MIC [3]: 100 µM (≈ 40.4 µg/mL)
MIC [4]: 100 µM (≈ 40.4 µg/mL)
inhibition [26]: inactive

Further lines, with some results ahead:

MIC [3]: > 100 µM
MIC [4]: > 100 µM
SMILES: CCC/C=C\c1ccccc1/C=C/C(=O)N[C@@H](Cc1c[nH]c2ccccc12)C(=O)OC
inhibition [1]: inactive
inhibition [2]: inactive

MIC [3]: > 100 µM
MIC [4]: 100 µM (≈ 33.9 µg/mL)
inhibition [26]: inactive
Emax [27]: > 300%
SMILES: COC(=O)[C@H](Cc1ccc(O)cc1)NC(=O)/C=C/c1ccccc1C
inhibition [1]: inactive
inhibition [2]: inactive

MIC [3]: > 100 µM
MIC [4]: > 100 µM
inhibition [26]: inactive
SMILES: CCC/C=C\c1ccccc1/C=C/C(=O)N[C@@H](Cc1ccc(O)cc1)C(=O)O
inhibition [1]: inactive
inhibition [2]: inactive
inhibition [30]: inactive
inhibition [31]: inactive

MIC [3]: 0.05 µM (≈ 0.0167 µg/mL)
MIC [4]: 10 µM (≈ 3.34 µg/mL)
SMILES: CC1(C)S[C@@H]2[C@H](NC(=O)Cc3ccccc3)C(=O)N2[C@H]1C(=O)O [PENICILLIN G]

MIC [3]: > 100 µM
MIC [4]: > 100 µM
inhibition [26]: inactive
SMILES: COC(=O)[C@H](Cc1ccc(O)cc1)NC(=O)/C=C/c1ccccc1
inhibition [1]: inactive
inhibition [2]: inactive

MIC [3]: 100 µM (≈ 35.5 µg/mL)
MIC [4]: 100 µM (≈ 35.5 µg/mL)
inhibition [26]: Active
SMILES: COC(=O)[C@H](Cc1ccc(O)cc1)NC(=O)/C=C/c1ccccc1OC
inhibition [1]: inactive
inhibition [2]: inactive

MIC [3]: 12.5 µM (≈ 4.92 µg/mL)
MIC [4]: 12.5 µM (≈ 4.92 µg/mL)
inhibition [26]: inactive
Emax [27]: > 300%
SMILES: CCC/C=C\c1ccccc1/C=C/C(=O)N[C@H](Cc1ccc(O)cc1)C(=O)OC
inhibition [1]: inactive
inhibition [2]: inactive
Activity [10]: Toxic
Activity [11]: Toxic
Activity [12]: Toxic
hemolysis at 1 h, 50 µM [32]: > 5%

MIC [3]: > 100 µM
MIC [4]: > 100 µM
inhibition [26]: inactive
SMILES: CCC/C=C\c1ccccc1/C=C/C(=O)N[C@H](Cc1ccc(O)cc1)C(=O)O
inhibition [1]: inactive
inhibition [2]: inactive
inhibition [30]: inactive
inhibition [31]: inactive
